Reference: patent US20240417390A1, “HYDROGEN SULFATE SALT OF A BCL-2 INHIBITOR, RELATED CRYSTALLINE FORM, METHOD FOR PREPARING THE SAME AND PHARMACEUTICAL COMPOSITIONS CONTAINING THE SAME” (LES LABORATOIRES SERVIER, priority 2018, published 2024)

Test: Solubility in water
Format: physicochemical
Details: free base
Method: Although Compound A is a very promising drug, it is a difficult compound to formulate. In particular, it is […] in water (<0.01 mg/ml for the free base). […] In addition, different polymorphs can have different rates of uptake in the body, leading to lower or higher biological activity than desired. In extreme cases, an undesired polymorph can even show toxicity. […] However, even though polymorphism has been a subject for intensive investigations, understanding and controlling this phenomenon represents a substantial scientific challenge. It is hard to predict whether a given molecule will crystallize in one or several crystal forms, and to find conditions leading to such crystallization.

solubility: < 10 µg/mL
SMILES: Cc1c(N(C(=O)c2cc(-c3cc(Cl)ccc3C(=O)N3Cc4ccccc4C[C@H]3CN3CCOCC3)n(C)c2C)c2ccc(O)cc2)cc(C#N)n1C [Compound A, 5-(5-chloro-2-{[(3S)-3-(morpholin-4-ylmethyl)-3,4-dihydroisoquinolin-2(1H)-yl]carbonyl}phenyl)-N-(5-cyano-1,2-dimethyl-1H-pyrrol-3-yl)-N-(4-hydroxyphenyl)-1,2-dimethyl-1H-pyrrole-3-carboxamide]
